In ChEMBL document CHEMBL6182898, “Design, synthesis and bioevaluation of novel hydrazide derivatives as enhancers of immunotherapy and DNA-damage response in antitumor therapy” (Eur J Med Chem, 2025):
pIC50: −log10 of the molar value. Active and inactive are the calls of the source. No cut-off for these calls is given here.

What was measured:
4T1 [1] = assay: Induction of DNA damage in mouse 4T1 cells assessed as decrease in PARP1 level at 2 uM incubated for 24 hrs by Western blot analysis; assay type: functional, cell-based
4T1 [2] = assay: Induction of DNA damage in mouse 4T1 cells assessed as increase in gamma-H2AX level at 2 uM incubated for 24 hrs by Western blot analysis; assay type: functional, cell-based
4T1 [3] = assay: Induction of DNA damage in mouse 4T1 cells assessed as decrease in PARP1 level at 1 uM by immunofluorescence based analysis; assay type: functional, cell-based
4T1 [4] = assay: Induction of DNA damage in mouse 4T1 cells assessed as increase in gamma-H2AX level at 1 uM by immunofluorescence based analysis; assay type: functional, cell-based
4T1 [5] = assay: Antitumor activity against mouse 4T1 cells implanted in mouse at 20 mg/kg/day relative to control; assay type: functional; settings: read-out: TGI
4T1 [6] = assay: Induction of DNA damage in mouse 4T1 cells implanted in mouse assessed as decrease in PARP level at 20 mg/kg/day by Western blot analysis; assay type: functional, organism-based
4T1 [7] = assay: Induction of DNA damage in mouse 4T1 cells implanted in mouse assessed as increase in gamma-H2AX level at 20 mg/kg/day by Western blot analysis; assay type: functional, organism-based
4T1 [8] = assay: Induction of DNA damage in mouse 4T1 cells implanted in mouse assessed as decrease in PARP level at 20 mg/kg/day by immunofluorescence based analysis; assay type: functional, organism-based
4T1 [9] = assay: Induction of DNA damage in mouse 4T1 cells implanted in mouse assessed as increase in gamma-H2AX level at 20 mg/kg/day by immunofluorescence based analysis; assay type: functional, organism-based
SK-OV-3 [10] = assay: cells; assay type: functional; settings: Homo sapiens, time 72 hrs
4T1 [11] = assay: cells; assay type: functional; settings: Mus musculus, time 72 hrs
HCT-116 [12] = assay: cells; assay type: functional; settings: Homo sapiens, time 72 hrs
B16-F10 [13] = assay: cells; assay type: functional; settings: Mus musculus, time 72 hrs
K562 [14] = assay: cells; assay type: functional; settings: Homo sapiens, time 72 hrs
4T1 [15] = assay: Antiproliferative activity against mouse 4T1 cells incubated for 72 hrs by MTT assay; assay type: functional, cell-based; settings: 4T1, 72 h
SK-OV-3 [16] = assay: Antiproliferative activity against human SK-OV-3 cells incubated for 72 hrs by MTT assay; assay type: functional, cell-based; settings: SK-OV-3, 72 h
HCT-116 [17] = assay: Antiproliferative activity against human HCT-116 cells incubated for 72 hrs by MTT assay; assay type: functional, cell-based; settings: HCT-116, 72 h
B16-F10 [18] = assay: Antiproliferative activity against mouse B16-F10 cells incubated for 72 hrs by MTT assay; assay type: functional, cell-based; settings: B16-F10, 72 h
K562 [19] = assay: Antiproliferative activity against human K562 cells incubated for 72 hrs by CCK8 assay; assay type: functional, cell-based; settings: K562, 72 h
[20] = Antiproliferative activity against human HK-2 cells incubated for 72 hrs by MTT assay
Histone deacetylase 1 = Histone deacetylase 1 (Homo sapiens, UniProt Q13547); assay: Inhibition of HDAC1 (unknown origin)
Histone deacetylase 1, sequence (Q13547 whole entry): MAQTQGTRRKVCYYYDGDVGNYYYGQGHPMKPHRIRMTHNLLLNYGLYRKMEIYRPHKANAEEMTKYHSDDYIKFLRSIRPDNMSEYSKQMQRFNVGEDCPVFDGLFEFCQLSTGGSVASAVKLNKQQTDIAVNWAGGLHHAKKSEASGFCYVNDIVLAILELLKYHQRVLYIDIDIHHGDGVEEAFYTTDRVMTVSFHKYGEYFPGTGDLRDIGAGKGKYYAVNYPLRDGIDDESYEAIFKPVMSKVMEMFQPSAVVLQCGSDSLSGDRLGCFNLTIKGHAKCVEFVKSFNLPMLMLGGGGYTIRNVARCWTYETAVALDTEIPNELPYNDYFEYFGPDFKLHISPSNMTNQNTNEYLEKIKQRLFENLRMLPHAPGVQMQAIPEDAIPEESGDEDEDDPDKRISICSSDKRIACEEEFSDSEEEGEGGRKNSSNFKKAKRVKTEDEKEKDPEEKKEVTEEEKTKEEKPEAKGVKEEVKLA

Histone deacetylase 3 = Histone deacetylase 3 (Homo sapiens, UniProt O15379); assay: Inhibition of HDAC3 (unknown origin)
Histone deacetylase 3, sequence (O15379 whole entry): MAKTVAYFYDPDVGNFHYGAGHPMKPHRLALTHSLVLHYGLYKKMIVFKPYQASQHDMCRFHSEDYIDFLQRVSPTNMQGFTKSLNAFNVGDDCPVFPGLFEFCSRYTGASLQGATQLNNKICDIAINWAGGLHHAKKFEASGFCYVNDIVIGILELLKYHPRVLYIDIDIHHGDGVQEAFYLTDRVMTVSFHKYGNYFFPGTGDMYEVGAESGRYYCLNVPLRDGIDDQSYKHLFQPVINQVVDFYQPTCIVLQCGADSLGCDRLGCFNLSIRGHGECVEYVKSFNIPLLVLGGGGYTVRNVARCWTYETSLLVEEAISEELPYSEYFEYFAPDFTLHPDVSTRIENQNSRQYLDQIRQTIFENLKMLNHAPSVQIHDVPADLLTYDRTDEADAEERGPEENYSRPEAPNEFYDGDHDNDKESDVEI

[21] = biological target: T1, Protein deacetylase HDAC6 (Homo sapiens, UniProt Q9UBN7); assay: Inhibition of HDAC6 (unknown origin)
T1 sequence (Q9UBN7 whole entry): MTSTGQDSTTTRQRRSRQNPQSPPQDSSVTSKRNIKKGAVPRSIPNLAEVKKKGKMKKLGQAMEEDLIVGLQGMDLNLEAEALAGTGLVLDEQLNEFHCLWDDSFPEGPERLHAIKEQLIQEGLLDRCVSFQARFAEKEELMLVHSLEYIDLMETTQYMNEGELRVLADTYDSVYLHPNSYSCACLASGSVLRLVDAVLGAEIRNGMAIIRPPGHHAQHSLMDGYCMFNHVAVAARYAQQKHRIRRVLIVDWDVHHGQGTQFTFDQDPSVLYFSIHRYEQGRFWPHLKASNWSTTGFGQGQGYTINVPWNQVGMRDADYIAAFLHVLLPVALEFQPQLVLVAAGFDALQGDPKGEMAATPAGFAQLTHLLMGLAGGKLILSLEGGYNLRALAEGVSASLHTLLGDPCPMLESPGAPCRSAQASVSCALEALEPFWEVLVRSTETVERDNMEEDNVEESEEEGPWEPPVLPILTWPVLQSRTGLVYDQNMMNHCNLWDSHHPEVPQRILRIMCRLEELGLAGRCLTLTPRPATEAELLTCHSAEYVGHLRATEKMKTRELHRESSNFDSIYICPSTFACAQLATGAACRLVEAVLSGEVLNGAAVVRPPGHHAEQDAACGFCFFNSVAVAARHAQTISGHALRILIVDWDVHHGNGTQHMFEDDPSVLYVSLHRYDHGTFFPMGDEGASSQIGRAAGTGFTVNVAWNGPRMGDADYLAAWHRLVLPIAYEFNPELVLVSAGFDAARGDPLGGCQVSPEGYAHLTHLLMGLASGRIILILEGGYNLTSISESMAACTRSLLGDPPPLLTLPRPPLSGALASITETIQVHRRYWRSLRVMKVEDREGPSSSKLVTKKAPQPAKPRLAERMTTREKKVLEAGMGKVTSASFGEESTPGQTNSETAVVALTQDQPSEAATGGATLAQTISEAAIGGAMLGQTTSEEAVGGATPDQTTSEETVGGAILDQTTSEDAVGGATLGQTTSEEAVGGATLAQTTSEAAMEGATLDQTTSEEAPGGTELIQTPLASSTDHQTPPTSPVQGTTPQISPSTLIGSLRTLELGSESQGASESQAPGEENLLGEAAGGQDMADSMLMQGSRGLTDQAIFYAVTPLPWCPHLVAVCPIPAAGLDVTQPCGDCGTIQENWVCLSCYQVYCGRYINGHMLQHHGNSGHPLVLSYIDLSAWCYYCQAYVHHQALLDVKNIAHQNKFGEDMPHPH

Histone deacetylase 8 = biological target: T2, Histone deacetylase 8 (Homo sapiens, UniProt Q9BY41); assay: Inhibition of HDAC8 (unknown origin)
T2 sequence (Q9BY41 whole entry): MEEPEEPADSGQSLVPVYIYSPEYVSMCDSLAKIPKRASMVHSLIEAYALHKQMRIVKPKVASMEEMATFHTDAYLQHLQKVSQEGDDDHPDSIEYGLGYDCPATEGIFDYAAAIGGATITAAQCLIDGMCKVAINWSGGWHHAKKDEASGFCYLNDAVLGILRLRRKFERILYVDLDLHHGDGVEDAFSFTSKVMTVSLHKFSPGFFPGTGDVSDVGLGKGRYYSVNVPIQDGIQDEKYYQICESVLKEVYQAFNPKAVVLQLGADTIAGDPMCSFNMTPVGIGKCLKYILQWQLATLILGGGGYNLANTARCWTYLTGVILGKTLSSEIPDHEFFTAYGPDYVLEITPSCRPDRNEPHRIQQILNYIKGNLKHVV

| Structure (SMILES) | inhibition at 10 µM (SK-OV-3 [10]) | inhibition at 10 µM (4T1 [11]) | inhibition at 10 µM (HCT-116 [12]) | inhibition at 10 µM (B16-F10 [13]) | inhibition at 10 µM (K562 [14]) | pIC50 (4T1 [15]) | pIC50 (SK-OV-3 [16]) | pIC50 (HCT-116 [17]) | pIC50 (B16-F10 [18]) | pIC50 (K562 [19]) | IC50 at 72 h [20] | pIC50 (Histone deacetylase 1) | pIC50 (Histone deacetylase 3) | pIC50 [21] | pIC50 (Histone deacetylase 8) | further results |
| --- | --- | --- | --- | --- | --- | --- | --- | --- | --- | --- | --- | --- | --- | --- | --- | --- |
| O=C(c1cc(Cc2n[nH]c(=O)c3ccccc23)ccc1F)N1CCN(C(=O)C2CC2)CC1 [OLAPARIB] |  |  |  |  |  |  |  |  |  |  |  |  |  |  |  | Activity (4T1 [1]): Active; Activity (4T1 [2]): Active; Activity (4T1 [3]): Active; Activity (4T1 [4]): Active; inhibition in vivo at 20 mg/kg/day (4T1 [5]): 49%; Activity (4T1 [6]): Active; Activity (4T1 [7]): Active; Activity (4T1 [8]): Active; Activity (4T1 [9]): Active |
| CCCNNC(=O)CCCCCCNC(=O)c1cnc(-c2ccc(F)cc2F)s1 | 82.1% | < 20% | 79.7% | 56% | 70.5% | 4.89 | 5.10 | 5.32 | 5.32 | 5.25 | 12.2 µM | 6.05 | 6.14 | < 5.00 | < 5.00 |  |
| CCCNNC(=O)c1ccc(NC(=O)c2cnc(-c3ccccc3C)s2)cc1 | 56.2% | 26.4% | 67.1% | < 50% | 73.2% | 4.84 | 5.25 | 5.46 | 4.92 | 5.45 | 11.9 µM | 5.79 | 6.06 | < 5.00 | < 5.00 |  |
